Experimental data from patent publication US9695155B2, “Herbicidal substituted pyrimidinyloxy benzene compounds” (E. I. DU PONT DE NEMOURS AND COMPANY, priority 2013, dated 2017).

Legend:
[1] = system: giant foxtail; assay: Test A postemergence; assay type: in vivo, Setaria faberii
How it was run: (§1)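 Greenhouse pot test, loam/sand soil. Formulation: non-phytotoxic solvent mix plus surfactant. Pre: directed spray onto soil after sowing. Post: plants at 1–2 leaf, 2–10 cm. Rated visually vs untreated controls at ~10 d, 0 (no effect) to 100 (complete control).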

[2] = system: chickweed; assay: Test C postemergence; assay type: in vivo, Stellaria media; conditions: for Plant response rating (0 to 100), Chickweed: 16 g ai/ha, 0 is no effect, 100 is complete control; for Chickweed plant response rating: 31 g ai/ha, 13 to 15 days; for Chickweed plant response rating / Plant response rating, Chickweed: scale 0 to 100 (0 no effect, 100 complete control)
How it was run: (§2)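 Greenhouse herbicide screen. Pre: seeded loam/sand, sprayed at planting. Post: 1–4 leaf plants (2–18 cm) in peat-based mix. Formulation: solvent mixture + surfactant, non-phytotoxic. Readout: visual % control vs untreated, 13–15 d; dash = not tested.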

[3] = system: johnsongrass; assay: Test C postemergence; assay type: in vivo, Sorghum halepense; conditions: for Plant response rating (0 to 100), Johnsongrass: 16 g ai/ha, 0 is no effect, 100 is complete control; for Johnsongrass plant response rating: 31 g ai/ha, 13 to 15 days; for Johnsongrass plant response rating / Plant response rating, Johnsongrass: scale 0 to 100 (0 no effect, 100 complete control)
How it was run: as §2

[4] = system: kochia; assay: Test C postemergence; assay type: in vivo, Kochia scoparia; conditions: for Plant response rating (0 to 100), Kochia: 16 g ai/ha, 0 is no effect, 100 is complete control; for Kochia plant response rating: 31 g ai/ha, 13 to 15 days; for Kochia plant response rating / Plant response rating, Kochia: scale 0 to 100 (0 no effect, 100 complete control)
How it was run: as §2

[5] = system: corn; assay: Test A postemergence; assay type: in vivo, Zea mays
How it was run: as §1

[6] = system: ragweed; assay: Test C preemergence; assay type: in vivo, Ambrosia elatior; conditions: preemergence
How it was run: as §2

[7] = system: galium; assay: Test C postemergence; assay type: in vivo, Galium aparine; conditions: for Plant response rating (0 to 100), Galium: 16 g ai/ha, 0 is no effect, 100 is complete control; for Galium plant response rating: 31 g ai/ha, 13 to 15 days; for Galium plant response rating / Plant response rating, Galium: scale 0 to 100 (0 no effect, 100 complete control)
How it was run: as §2

[8] = system: large (Lg) crabgrass; assay: Test C preemergence; assay type: in vivo, Digitaria sanguinalis; conditions: for Crabgrass, Large plant response rating: preemergence; for Plant response rating, Crabgrass, Large: Preemergence, 31 g ai/ha, scale 0 to 100, 0 no effect, 100 complete control
How it was run: as §2

[9] = system: pigweed; assay: Test A preemergence; assay type: in vivo, Amaranthus retroflexus
How it was run: as §1

[10] = system: corn; assay: Test C postemergence; assay type: in vivo, Zea mays; conditions: for Plant response rating (0 to 100), Corn: 16 g ai/ha, 0 is no effect, 100 is complete control; for Corn plant response rating: 31 g ai/ha, 13 to 15 days; for Corn plant response rating / Plant response rating, Corn: scale 0 to 100 (0 no effect, 100 complete control)
How it was run: as §2

[11] = system: barnyardgrass; assay: Test A preemergence; assay type: in vivo, Echinochloa crus-galli
How it was run: as §1

[12] = system: johnsongrass; assay: Test C preemergence; assay type: in vivo, Sorghum halepense; conditions: preemergence
How it was run: as §2

[13] = system: pigweed; assay: Test A postemergence; assay type: in vivo, Amaranthus retroflexus
How it was run: as §1

[14] = system: lambsquarters; assay: Test C preemergence; assay type: in vivo, Chenopodium album; conditions: preemergence
How it was run: as §2

[15] = system: giant foxtail; assay: Test C postemergence; assay type: in vivo, Setaria faberii; conditions: for Plant response rating (0 to 100), Foxtail, Giant: 16 g ai/ha, 0 is no effect, 100 is complete control; for Foxtail, Giant plant response rating: 31 g ai/ha, 13 to 15 days; for Foxtail, Giant plant response rating / Plant response rating, Foxtail, Giant: scale 0 to 100 (0 no effect, 100 complete control)
How it was run: as §2

[16] = 125 g ai/ha, 0 to 100 scale where 0 is no effect and 100 is complete control
[17] = 500 g ai/ha, 0 to 100 scale where 0 is no effect and 100 is complete control
[18] = 125 g ai/ha, postemergence, visual rating
[19] = 16 g ai/ha, scale 0 to 100 (0 no effect, 100 complete control)
[20] = 62 g ai/ha, scale 0 (no effect) to 100 (complete control)
[21] = 125 g ai/ha, scale 0 (no effect) to 100 (complete control)
[22] = 1000 g ai/ha, 0 to 100 scale, 0 no effect, 100 complete control
[23] = 1000 g ai/ha, 0 to 100 scale, 0 no effect, 100 complete control, approx. 10 days

Structure (SMILES): CCCOc1cnn(-c2c(C#N)cccc2Oc2ncc(Cl)cn2)c1 [Compound 150]
- Foxtail, Giant plant response rating [1, 16]: 100
- Plant response rating, Foxtail, Giant [1, 17]: 100
- Plant response rating (0 to 100), Chickweed ([2]; postemergence): 50
- Chickweed plant response rating ([2]; postemergence, visual rating): 65
- Plant response rating, Chickweed [2, 18]: 70
- Plant response rating, Chickweed ([2]; Postemergence, 62 g ai/ha): 65
- Plant response rating (0 to 100), Johnsongrass ([3]; postemergence): 0
- Johnsongrass plant response rating ([3]; postemergence, visual rating): 0
- Plant response rating, Johnsongrass [3, 18]: 5
- Plant response rating, Johnsongrass ([3]; Postemergence, 62 g ai/ha): 5
- Plant response rating (0 to 100), Kochia ([4]; postemergence): 50
- Kochia plant response rating ([4]; postemergence, visual rating): 55
- Plant response rating, Kochia [4, 18]: 85
- Plant response rating, Kochia ([4]; Postemergence, 62 g ai/ha): 55
- Corn plant response rating [5, 16]: 50
- Plant response rating, Corn [5, 17]: 90
- Ragweed plant response rating [6, 19]: 0
- Ragweed plant response rating [6, 20]: 25
- Ragweed plant response rating [6, 21]: 55
- Plant response rating (0 to 100), Galium ([7]; postemergence): 60
- Galium plant response rating ([7]; postemergence, visual rating): 65
- Plant response rating, Galium [7, 18]: 80
- Plant response rating, Galium ([7]; Postemergence, 62 g ai/ha): 75
- Crabgrass, Large plant response rating [8, 19]: 70
- Crabgrass, Large plant response rating [8, 20]: 100
- Crabgrass, Large plant response rating [8, 21]: 100
- Plant response rating, Crabgrass, Large [8]: 98
- Plant response rating, Pigweed [9, 16]: 100
- Pigweed plant response rating [9, 17]: 100
- Plant response rating (0 to 100), Corn ([10]; postemergence): 5
- Corn plant response rating ([10]; postemergence, visual rating): 10
- Plant response rating, Corn [10, 18]: 10
- Plant response rating, Corn ([10]; Postemergence, 62 g ai/ha): 10
- Plant response rating, Barnyardgrass [11, 16]: 90
- Barnyardgrass plant response rating [11, 17]: 100
- Johnsongrass plant response rating [12, 19]: 0
- Johnsongrass plant response rating [12, 20]: 70
- Johnsongrass plant response rating [12, 21]: 80
- Pigweed plant response rating [13, 16]: 100
- Plant response rating, Pigweed [13, 17]: 100
- Lambsquarters plant response rating [14, 19]: 10
- Lambsquarters plant response rating [14, 20]: 80
- Lambsquarters plant response rating [14, 21]: 100
- Plant response rating (0 to 100), Foxtail, Giant ([15]; postemergence): 5
- Foxtail, Giant plant response rating ([15]; postemergence, visual rating): 20
- Plant response rating, Foxtail, Giant [15, 18]: 25
- Plant response rating, Foxtail, Giant ([15]; Postemergence, 62 g ai/ha): 20

Structure (SMILES): FCc1cn(-c2c(F)cccc2Oc2ncc(Cl)cn2)nn1 [Compound 154]
- Plant response rating, Foxtail, Giant [1, 22]: 100
- Plant response rating (0 to 100), Chickweed ([2]; postemergence): 5
- Chickweed plant response rating ([2]; postemergence, visual rating): 5
- Plant response rating, Chickweed [2, 18]: 60
- Plant response rating, Chickweed ([2]; Postemergence, 62 g ai/ha): 10
- Plant response rating (0 to 100), Johnsongrass ([3]; postemergence): 0
- Johnsongrass plant response rating ([3]; postemergence, visual rating): 0
- Plant response rating, Johnsongrass [3, 18]: 5
- Plant response rating, Johnsongrass ([3]; Postemergence, 62 g ai/ha): 0
- Plant response rating (0 to 100), Kochia ([4]; postemergence): 50
- Kochia plant response rating ([4]; postemergence, visual rating): 50
- Plant response rating, Kochia [4, 18]: 80
- Plant response rating, Kochia ([4]; Postemergence, 62 g ai/ha): 80
- Plant response rating, Corn [5, 22]: 90
- Ragweed plant response rating [6, 19]: 75
- Ragweed plant response rating [6, 20]: 95
- Ragweed plant response rating [6, 21]: 90
- Plant response rating (0 to 100), Galium ([7]; postemergence): 60
- Galium plant response rating ([7]; postemergence, visual rating): 65
- Plant response rating, Galium [7, 18]: 85
- Plant response rating, Galium ([7]; Postemergence, 62 g ai/ha): 80
- Crabgrass, Large plant response rating [8, 19]: 75
- Crabgrass, Large plant response rating [8, 20]: 100
- Crabgrass, Large plant response rating [8, 21]: 100
- Plant response rating, Crabgrass, Large [8]: 90
- Pigweed plant response rating [9, 23]: 100
- Plant response rating (0 to 100), Corn ([10]; postemergence): 0
- Corn plant response rating ([10]; postemergence, visual rating): 0
- Plant response rating, Corn [10, 18]: 0
- Plant response rating, Corn ([10]; Postemergence, 62 g ai/ha): 0
- Barnyardgrass plant response rating [11, 23]: 100
- Johnsongrass plant response rating [12, 19]: 0
- Johnsongrass plant response rating [12, 20]: 40
- Johnsongrass plant response rating [12, 21]: 85
- Plant response rating, Pigweed [13, 22]: 100
- Lambsquarters plant response rating [14, 19]: 70
- Lambsquarters plant response rating [14, 20]: 90
- Lambsquarters plant response rating [14, 21]: 100
- Plant response rating (0 to 100), Foxtail, Giant ([15]; postemergence): 5
- Foxtail, Giant plant response rating ([15]; postemergence, visual rating): 10
- Plant response rating, Foxtail, Giant [15, 18]: 15
- Plant response rating, Foxtail, Giant ([15]; Postemergence, 62 g ai/ha): 5
